{"source": "patent US12195442B2", "about": "“(Hetero)arylimidazole compound and harmful organism control agent” (Nippon Soda Co., Ltd., priority 2018, dated 2025)"}
{"test_system": "Mythimna separata", "assay": "Test Example 1: efficacy on Mythimna separata (treated artificial feed)", "type": "in vivo", "details": "1 μl of 5% emulsion (I) mixed with 0.8 g artificial feed; second instar larvae; 25° C.; fifth day", "experimental": "5 parts of the (hetero)aryl imidazole compound of the present invention, 93.6 parts of dimethylformamide, and 1.4 parts of polyoxyethylene alkyl aryl ether were mixed and dissolved to prepare emulsion (I) containing 5% of the active ingredient.\nFor a control, 98.5 parts of dimethylformamide and 1.5 parts of polyoxyethylene alkyl aryl ether were mixed and dissolved to prepare emulsion (II).\nAn insecticidal rate was calculated according to the following expression: Insecticidal rate (%)=(The number of dead insects/The number of tested insects)×100\n0.8 g of commercially available artificial feed (Insecta LFS, manufactured by Nosan Corp.) and 1 μl of the emulsion (I) were well mixed to obtain test feed.\nA plastic test container (capacity: 1.4 ml) was packed with 0.2 g of the test feed per treatment plot. Then, two second instar larvae of Mythimna separata were inoculated to each treatment plot. A plastic lid was put on the test container so as to prevent escape of the second instar larvae of Mythimna separata. The container was placed in a thermostat chamber of 25° C. On the fifth day, the insecticidal rate and the food intake were examined. The test was conducted in duplicate.\nThe insecticidal rate and the food intake of a control plot were examined in the same way as in Test Example 1 except that the emulsion (I) was changed to the emulsion (II)."}
{"smiles": "CCSc1cc(C2CC2)ccc1-c1ncc(C=C(Cl)C(F)(F)F)n1C", "note": "(mixture of isomers) [d-6]", "insecticidal rate or food intake as compared with the control plot": "insecticidal rate of 100% for Mythimna separata or a food intake of 10% or less as compared with the control plot"}
{"smiles": "CCS(=O)(=O)c1cc(C2CC2)ccc1-c1ncc(C=C(Cl)C(F)(F)F)n1C", "note": "(mixture of isomers) [d-7]", "insecticidal rate or food intake as compared with the control plot": "insecticidal rate of 100% for Mythimna separata or a food intake of 10% or less as compared with the control plot"}
{"smiles": "CCS(=O)(=O)c1cc(C2(C(N)=S)CC2)cnc1-c1ncc(C=C(Cl)C(F)(F)F)n1C", "note": "(mixture of isomers) [d-18]", "insecticidal rate or food intake as compared with the control plot": "insecticidal rate of 100% for Mythimna separata or a food intake of 10% or less as compared with the control plot"}
{"smiles": "CCS(=O)(=O)c1cc(C2(C)CC2)cnc1-c1ncc(C=C(Cl)C(F)(F)F)n1C", "note": "(mixture of isomers) [d-20]", "insecticidal rate or food intake as compared with the control plot": "insecticidal rate of 100% for Mythimna separata or a food intake of 10% or less as compared with the control plot"}
{"smiles": "CCS(=O)(=O)c1cc(C2(c3ccccn3)CC2)cnc1-c1ncc(C=C(Cl)C(F)(F)F)n1C", "note": "(mixture of isomers) [d-21]", "insecticidal rate or food intake as compared with the control plot": "insecticidal rate of 100% for Mythimna separata or a food intake of 10% or less as compared with the control plot"}
{"smiles": "CCS(=O)(=O)c1cc(C2CC2)cnc1-c1ncc(C=C(Br)C(F)(F)F)n1C", "note": "(mixture of isomers) [d-24]", "insecticidal rate or food intake as compared with the control plot": "insecticidal rate of 100% for Mythimna separata or a food intake of 10% or less as compared with the control plot"}
{"smiles": "Cn1c(C=C(Cl)C(F)(F)F)cnc1-c1ncc(C2CC2)cc1S(C)(=O)=O", "note": "(mixture of isomers) [d-28]", "insecticidal rate or food intake as compared with the control plot": "insecticidal rate of 100% for Mythimna separata or a food intake of 10% or less as compared with the control plot"}
{"smiles": "CCS(=O)(=O)c1cc(C2CCCC2)cnc1-c1ncc(C=C(Cl)C(F)(F)F)n1C", "note": "(mixture of isomers) [d-32]", "insecticidal rate or food intake as compared with the control plot": "insecticidal rate of 100% for Mythimna separata or a food intake of 10% or less as compared with the control plot"}
{"smiles": "CCS(=O)(=O)c1cc(C2CC2)cnc1-c1ncc(C(F)=C(F)OC(F)(F)F)n1C", "note": "(mixture of isomers) [d-37]", "insecticidal rate or food intake as compared with the control plot": "insecticidal rate of 100% for Mythimna separata or a food intake of 10% or less as compared with the control plot"}
{"smiles": "CCS(=O)(=O)c1cc(C2CC2)c[n+]([O-])c1-c1ncc(C=C(Cl)C(F)(F)F)n1C", "note": "(mixture of isomers) [e-4]", "insecticidal rate or food intake as compared with the control plot": "insecticidal rate of 100% for Mythimna separata or a food intake of 10% or less as compared with the control plot"}
{"smiles": "CCS(=O)(=O)c1cc(C2CC2)cnc1-c1ncc(C=CC(F)(F)C(F)(F)F)n1C", "note": "[d-1]", "insecticidal rate or food intake as compared with the control plot": "insecticidal rate of 100% for Mythimna separata or a food intake of 10% or less as compared with the control plot"}
{"smiles": "CCS(=O)(=O)c1cc(C2CC2)ccc1-c1ncc(C=CC(F)(F)C(F)(F)C(F)(F)F)n1C", "note": "[d-3]", "insecticidal rate or food intake as compared with the control plot": "insecticidal rate of 100% for Mythimna separata or a food intake of 10% or less as compared with the control plot"}
{"smiles": "CCS(=O)(=O)c1cc(C2CC2)cnc1-c1ncc(C=CC(F)(F)C(F)(F)C(F)(F)C(F)(F)F)n1C", "note": "[d-4]", "insecticidal rate or food intake as compared with the control plot": "insecticidal rate of 100% for Mythimna separata or a food intake of 10% or less as compared with the control plot"}
{"smiles": "CCS(=O)(=O)c1cc(C2CC2)ccc1-c1ncc(C=CC(F)(F)C(F)(F)F)n1C", "note": "[d-5]", "insecticidal rate or food intake as compared with the control plot": "insecticidal rate of 100% for Mythimna separata or a food intake of 10% or less as compared with the control plot"}
{"smiles": "CCS(=O)(=O)c1cc(C2CC2)cnc1-c1ncc(C=C(Cl)Cl)n1C", "note": "[d-8]", "insecticidal rate or food intake as compared with the control plot": "insecticidal rate of 100% for Mythimna separata or a food intake of 10% or less as compared with the control plot"}
{"smiles": "CCS(=O)(=O)c1cc(C2CC2)cnc1-c1ncc(C=C(Cl)C(F)(F)C(F)(F)F)n1C", "note": "[d-12]", "insecticidal rate or food intake as compared with the control plot": "insecticidal rate of 100% for Mythimna separata or a food intake of 10% or less as compared with the control plot"}
{"smiles": "CCS(=O)(=O)c1cc(C2CC2)cnc1-c1ncc(C=C(Cl)C(F)(F)C(F)(F)C(F)(F)F)n1C", "note": "[d-13]", "insecticidal rate or food intake as compared with the control plot": "insecticidal rate of 100% for Mythimna separata or a food intake of 10% or less as compared with the control plot"}
{"smiles": "CCS(=O)(=O)c1cc(C2CC2)cnc1-c1ncc(C=C(Cl)I)n1C", "note": "[d-14]", "insecticidal rate or food intake as compared with the control plot": "insecticidal rate of 100% for Mythimna separata or a food intake of 10% or less as compared with the control plot"}
{"smiles": "CCS(=O)(=O)c1cc(C2(C#N)CC2)cnc1-c1ncc(C=C(Cl)C(F)(F)F)n1C", "note": "[d-15, 1-(6-(5-(2-chloro-3,3,3-trifluoroprop-1-en-1-yl)-1-methyl-1H-imidazol-2-yl)-5-(ethylsulfonyl)pyridin-3-yl)cyclopropane-1-carbonitrile]", "insecticidal rate or food intake as compared with the control plot": "insecticidal rate of 100% for Mythimna separata or a food intake of 10% or less as compared with the control plot"}
{"smiles": "CCS(=O)(=O)c1cc(C2(C#N)CC2)cnc1-c1ncc(C=CC(F)(F)F)n1C", "note": "[d-16]", "insecticidal rate or food intake as compared with the control plot": "insecticidal rate of 100% for Mythimna separata or a food intake of 10% or less as compared with the control plot"}
{"smiles": "CCS(=O)(=O)c1cc(C2CC2)cnc1-c1ncc(C=C(C(F)(F)F)C(F)(F)F)n1C", "note": "[d-19]", "insecticidal rate or food intake as compared with the control plot": "insecticidal rate of 100% for Mythimna separata or a food intake of 10% or less as compared with the control plot"}
{"smiles": "CCS(=O)(=O)c1cc(C2(C#N)CC2)cnc1-c1ncc(C=CC(F)(F)C(F)(F)F)n1C", "note": "[d-22]", "insecticidal rate or food intake as compared with the control plot": "insecticidal rate of 100% for Mythimna separata or a food intake of 10% or less as compared with the control plot"}
{"smiles": "CCS(=O)(=O)c1cc(C2(C#N)CC2)cnc1-c1ncc(C=CC(F)(F)C(F)(F)C(F)(F)F)n1C", "note": "[d-23]", "insecticidal rate or food intake as compared with the control plot": "insecticidal rate of 100% for Mythimna separata or a food intake of 10% or less as compared with the control plot"}
{"smiles": "CCS(=O)(=O)c1cc(C2CC2)cnc1-c1ncc(C=C(F)C(F)(F)C(F)(F)C(F)(F)F)n1C", "note": "[d-27]", "insecticidal rate or food intake as compared with the control plot": "insecticidal rate of 100% for Mythimna separata or a food intake of 10% or less as compared with the control plot"}
{"smiles": "CCS(=O)(=O)c1cc(C2(C)CC2)cnc1-c1ncc(C=CC(F)(F)C(F)(F)C(F)(F)F)n1C", "note": "[d-29]", "insecticidal rate or food intake as compared with the control plot": "insecticidal rate of 100% for Mythimna separata or a food intake of 10% or less as compared with the control plot"}
{"smiles": "Cn1c(C=C(Cl)C(F)(F)C(F)(F)F)cnc1-c1ncc(C2CC2)cc1S(C)(=O)=O", "note": "[d-30]", "insecticidal rate or food intake as compared with the control plot": "insecticidal rate of 100% for Mythimna separata or a food intake of 10% or less as compared with the control plot"}
{"smiles": "CCS(=O)(=O)c1cc(C2CC2)cnc1-c1ncc(C=C(Cl)C(F)(F)F)n1C", "note": "[d-33]", "insecticidal rate or food intake as compared with the control plot": "insecticidal rate of 100% for Mythimna separata or a food intake of 10% or less as compared with the control plot"}
{"smiles": "CCS(=O)(=O)c1cc(C2CC2)cnc1-c1ncc(C(F)=C(F)OC(F)(F)C(F)(F)C(F)(F)F)n1C", "note": "[d-35]", "insecticidal rate or food intake as compared with the control plot": "insecticidal rate of 100% for Mythimna separata or a food intake of 10% or less as compared with the control plot"}
{"smiles": "CCS(=O)(=O)c1cc(C2CC2)c[n+]([O-])c1-c1ncc(C=C(F)C(F)(F)C(F)(F)F)n1C", "note": "[e-1]", "insecticidal rate or food intake as compared with the control plot": "insecticidal rate of 100% for Mythimna separata or a food intake of 10% or less as compared with the control plot"}
